According to patent publication US8088763B2 (priority 2004, dated 2012):

Experiments:
[1] = biological target: T1, 5HT-uptake (Rattus norvegicus, UniProt P31652); test: biochemical; settings: read-out: 5HT-uptake [10 μM], % inhibition
T1 construct: synaptosomes were freshly isolated from areas of rats' brains

[2] = biological target: NA-uptake (Rattus norvegicus, UniProt Q63380); test: biochemical; settings: read-out: NA-uptake [10 μM], % inhibition
NA-uptake, sequence (Q63380 1-617): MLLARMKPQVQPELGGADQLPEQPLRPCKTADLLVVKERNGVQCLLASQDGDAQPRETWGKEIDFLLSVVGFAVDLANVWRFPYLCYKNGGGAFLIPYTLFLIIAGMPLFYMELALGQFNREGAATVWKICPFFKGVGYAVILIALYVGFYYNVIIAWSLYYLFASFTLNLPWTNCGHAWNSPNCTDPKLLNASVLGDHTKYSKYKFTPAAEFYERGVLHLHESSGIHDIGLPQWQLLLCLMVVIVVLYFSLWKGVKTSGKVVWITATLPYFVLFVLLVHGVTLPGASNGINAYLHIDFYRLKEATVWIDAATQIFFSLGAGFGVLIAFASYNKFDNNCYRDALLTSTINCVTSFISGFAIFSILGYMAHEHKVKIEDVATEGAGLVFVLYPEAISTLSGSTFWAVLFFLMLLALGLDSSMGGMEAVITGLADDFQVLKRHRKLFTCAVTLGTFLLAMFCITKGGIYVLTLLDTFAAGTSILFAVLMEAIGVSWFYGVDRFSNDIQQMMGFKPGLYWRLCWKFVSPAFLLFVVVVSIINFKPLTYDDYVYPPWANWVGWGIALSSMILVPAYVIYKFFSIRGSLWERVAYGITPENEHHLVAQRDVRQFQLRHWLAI

T1 sequence (P31652 whole entry): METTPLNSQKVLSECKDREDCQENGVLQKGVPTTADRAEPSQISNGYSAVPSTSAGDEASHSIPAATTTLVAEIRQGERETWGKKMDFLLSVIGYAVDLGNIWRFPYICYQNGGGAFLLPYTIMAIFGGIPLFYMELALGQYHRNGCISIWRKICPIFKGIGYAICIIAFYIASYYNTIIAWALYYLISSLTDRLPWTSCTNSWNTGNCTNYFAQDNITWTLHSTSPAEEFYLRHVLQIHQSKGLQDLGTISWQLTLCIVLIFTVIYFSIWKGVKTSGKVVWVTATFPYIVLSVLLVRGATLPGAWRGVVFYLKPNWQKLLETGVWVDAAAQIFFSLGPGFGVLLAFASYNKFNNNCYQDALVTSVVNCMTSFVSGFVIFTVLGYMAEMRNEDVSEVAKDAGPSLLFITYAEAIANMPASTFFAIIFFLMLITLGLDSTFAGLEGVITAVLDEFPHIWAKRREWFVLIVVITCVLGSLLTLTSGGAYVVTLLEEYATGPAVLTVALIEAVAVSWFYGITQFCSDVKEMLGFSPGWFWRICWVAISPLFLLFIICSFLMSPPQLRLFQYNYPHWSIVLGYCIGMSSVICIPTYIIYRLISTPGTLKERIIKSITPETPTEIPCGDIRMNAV

Structure (SMILES) | inhibition at 10 µM [1] [%] | inhibition at 10 µM [2] [%]
CCOP(=O)(Cc1ccc(NC(=O)CCC(=O)NC2CCC(Cc3cccc(C)c3)(N(C)C)CC2)cc1)OCC (stereo not drawn) [Example 46, (4-{3-[4-dimethylamino-4-(3-methyl-benzyl)-cyclohexylcarbamoyl]-propionylamino}-benzyl)-phosphonic acid diethylester] | 92 | 89
CCN(Cc1ccncc1)C(=O)CCC(=O)NC1CCC(Cc2ccc(Cl)cc2)(N(C)C)CC1 (stereo not drawn) [Example 70, N-[4-(4-chloro-benzyl)-4-dimethylamino-cyclohexyl]-N′-ethyl-N′-pyridin-4-ylmethyl-succinamide] | 93 | 96
Cc1ccc(CC2(N(C)C)CCC(NC(=O)CCC(=O)N3CC=C(c4ccccc4)CC3)CC2)cc1 (stereo not drawn) [Example 87, N-[4-dimethylamino-4-(4-methyl-benzyl)-cyclohexyl]-4-oxo-4-(4-phenyl-3,6-dihydro-2H-pyridin-1-yl)-butyramide] | 96 | 94
Cc1cccc(CC2(N(C)C)CCC(NC(=O)CCC(=O)N3CCN(C(=O)c4cccc(Cl)c4)CC3)CC2)c1 (stereo not drawn) [Example 107, 4-[4-(3-chloro-benzoyl)-piperazin-1-yl]-N-[4-dimethylamino-4-(3-methyl-benzyl)-cyclohexyl]-4-oxo-butyramide] | 95 | 106
CCOC(=O)N1CCN(C(=O)CCC(=O)NC2CCC(Cc3cccc(Cl)c3)(N(C)C)CC2)CC1 (stereo not drawn) [Example 84, 4-{3-[4-(3-chloro-benzyl)-4-dimethylamino-cyclohexylcarbamoyl]-propionyl}-piperazin-1-carboxylic acid ethylester] | 95 | 96
Cc1ccc(CCNC(=O)CCC(=O)NC2CCC(Cc3ccc(C)cc3)(N(C)C)CC2)cc1 (stereo not drawn) [Example 168, N-[4-dimethylamino-4-(4-methyl-benzyl)-cyclohexyl]-N′-(2-p-tolyl-ethyl)-succinamide] | 92 | 96
